Assay results: patent publication US12030878B2 (BRISTOL-MYERS SQUIBB COMPANY, priority 2017, dated 2024)

Key:
Type in all cases: cell-based
[1] = biological target: T1, human TLR9 (Homo sapiens, UniProt Q9NR96); experiment: TLR9 inhibition reporter assay (HEK-Blue SEAP); details: HEK-Blue cells overexpressing human TLR9, stimulated with ODN2006 5 nM, 22 hour incubation
T1 construct: host or cells: HEK-Blue cells
T1 sequence (Q9NR96 26-1032): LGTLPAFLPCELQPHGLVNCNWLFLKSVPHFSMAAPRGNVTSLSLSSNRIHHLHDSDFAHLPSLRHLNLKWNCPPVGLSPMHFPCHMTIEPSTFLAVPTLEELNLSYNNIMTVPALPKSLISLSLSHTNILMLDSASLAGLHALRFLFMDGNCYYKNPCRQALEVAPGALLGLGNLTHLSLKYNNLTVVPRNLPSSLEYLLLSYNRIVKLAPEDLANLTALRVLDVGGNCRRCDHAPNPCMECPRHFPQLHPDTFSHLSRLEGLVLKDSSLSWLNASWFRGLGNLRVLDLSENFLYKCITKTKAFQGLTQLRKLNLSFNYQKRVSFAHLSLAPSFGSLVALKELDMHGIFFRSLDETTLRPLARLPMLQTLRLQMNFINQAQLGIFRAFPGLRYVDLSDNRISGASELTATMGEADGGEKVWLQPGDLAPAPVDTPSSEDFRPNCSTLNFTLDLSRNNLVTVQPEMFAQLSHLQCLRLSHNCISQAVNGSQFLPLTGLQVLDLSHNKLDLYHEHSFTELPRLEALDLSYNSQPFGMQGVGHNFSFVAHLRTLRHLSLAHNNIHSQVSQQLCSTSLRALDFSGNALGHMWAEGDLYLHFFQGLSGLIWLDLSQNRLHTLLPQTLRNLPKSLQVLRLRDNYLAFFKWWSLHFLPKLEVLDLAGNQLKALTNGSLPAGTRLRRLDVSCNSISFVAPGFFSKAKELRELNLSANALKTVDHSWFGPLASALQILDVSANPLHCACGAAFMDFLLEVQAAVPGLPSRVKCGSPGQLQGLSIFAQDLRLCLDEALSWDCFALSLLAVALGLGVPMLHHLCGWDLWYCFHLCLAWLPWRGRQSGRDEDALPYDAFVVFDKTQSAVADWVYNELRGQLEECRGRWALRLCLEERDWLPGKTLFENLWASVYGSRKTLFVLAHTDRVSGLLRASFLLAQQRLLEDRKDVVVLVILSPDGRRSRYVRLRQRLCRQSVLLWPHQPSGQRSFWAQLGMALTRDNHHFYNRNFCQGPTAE
Procedure, shortened: (§1)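 Stimulation followed a 30 min room-temperature compound exposure (final 0.05 nM-50 μM): TLR7 cells with 7.5 μM gardiquimod, TLR8 with 15.9 μM R848, TLR9 with 5 nM ODN2006. After 22 h at 37 °C, secreted alkaline phosphatase was detected colorimetrically and inhibition calculated against DMSO and known-inhibitor controls.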

[2] = biological target: T2, human TLR7 (Homo sapiens, UniProt Q9NYK1); experiment: TLR7 inhibition reporter assay (HEK-Blue SEAP); details: HEK-Blue cells overexpressing human TLR7, stimulated with gardiquimod 7.5 μM, 22 hour incubation
T2 construct: host or cells: HEK-Blue cells
T2 sequence (Q9NYK1 27-1049): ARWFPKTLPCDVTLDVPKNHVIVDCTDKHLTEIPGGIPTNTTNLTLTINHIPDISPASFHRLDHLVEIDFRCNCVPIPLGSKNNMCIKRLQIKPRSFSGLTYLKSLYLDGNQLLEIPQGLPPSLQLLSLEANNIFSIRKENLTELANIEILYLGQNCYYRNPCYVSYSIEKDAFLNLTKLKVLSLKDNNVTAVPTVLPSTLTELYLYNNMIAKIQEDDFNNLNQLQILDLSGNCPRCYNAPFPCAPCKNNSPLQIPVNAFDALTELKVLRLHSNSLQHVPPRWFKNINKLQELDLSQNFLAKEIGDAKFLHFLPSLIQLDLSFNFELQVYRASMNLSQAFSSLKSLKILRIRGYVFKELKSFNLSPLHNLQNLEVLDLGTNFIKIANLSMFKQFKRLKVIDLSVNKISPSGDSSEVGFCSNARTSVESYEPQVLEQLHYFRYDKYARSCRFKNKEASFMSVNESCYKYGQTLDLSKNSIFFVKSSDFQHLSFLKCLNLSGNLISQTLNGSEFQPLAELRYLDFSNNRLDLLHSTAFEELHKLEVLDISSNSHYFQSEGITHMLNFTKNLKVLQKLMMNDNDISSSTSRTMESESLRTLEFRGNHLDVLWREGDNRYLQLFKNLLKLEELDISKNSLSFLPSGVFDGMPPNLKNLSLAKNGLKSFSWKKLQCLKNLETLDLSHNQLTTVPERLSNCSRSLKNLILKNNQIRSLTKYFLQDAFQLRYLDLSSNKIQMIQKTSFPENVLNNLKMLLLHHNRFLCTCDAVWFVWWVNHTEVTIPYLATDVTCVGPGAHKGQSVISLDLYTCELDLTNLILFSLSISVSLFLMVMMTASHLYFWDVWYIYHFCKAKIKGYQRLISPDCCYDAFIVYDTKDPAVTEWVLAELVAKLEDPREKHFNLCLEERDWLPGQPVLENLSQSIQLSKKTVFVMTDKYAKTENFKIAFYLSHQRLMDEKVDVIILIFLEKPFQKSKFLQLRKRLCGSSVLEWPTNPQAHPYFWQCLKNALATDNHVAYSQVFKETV
Procedure, shortened: as §1

[3] = biological target: T3, human TLR8 (Homo sapiens, UniProt Q9NR97); experiment: TLR8 inhibition reporter assay (HEK-Blue SEAP); details: HEK-Blue cells overexpressing human TLR8, stimulated with R848 15.9 μM, 22 hour incubation
T3 construct: host or cells: HEK-Blue cells
T3 sequence (Q9NR97 27-1041): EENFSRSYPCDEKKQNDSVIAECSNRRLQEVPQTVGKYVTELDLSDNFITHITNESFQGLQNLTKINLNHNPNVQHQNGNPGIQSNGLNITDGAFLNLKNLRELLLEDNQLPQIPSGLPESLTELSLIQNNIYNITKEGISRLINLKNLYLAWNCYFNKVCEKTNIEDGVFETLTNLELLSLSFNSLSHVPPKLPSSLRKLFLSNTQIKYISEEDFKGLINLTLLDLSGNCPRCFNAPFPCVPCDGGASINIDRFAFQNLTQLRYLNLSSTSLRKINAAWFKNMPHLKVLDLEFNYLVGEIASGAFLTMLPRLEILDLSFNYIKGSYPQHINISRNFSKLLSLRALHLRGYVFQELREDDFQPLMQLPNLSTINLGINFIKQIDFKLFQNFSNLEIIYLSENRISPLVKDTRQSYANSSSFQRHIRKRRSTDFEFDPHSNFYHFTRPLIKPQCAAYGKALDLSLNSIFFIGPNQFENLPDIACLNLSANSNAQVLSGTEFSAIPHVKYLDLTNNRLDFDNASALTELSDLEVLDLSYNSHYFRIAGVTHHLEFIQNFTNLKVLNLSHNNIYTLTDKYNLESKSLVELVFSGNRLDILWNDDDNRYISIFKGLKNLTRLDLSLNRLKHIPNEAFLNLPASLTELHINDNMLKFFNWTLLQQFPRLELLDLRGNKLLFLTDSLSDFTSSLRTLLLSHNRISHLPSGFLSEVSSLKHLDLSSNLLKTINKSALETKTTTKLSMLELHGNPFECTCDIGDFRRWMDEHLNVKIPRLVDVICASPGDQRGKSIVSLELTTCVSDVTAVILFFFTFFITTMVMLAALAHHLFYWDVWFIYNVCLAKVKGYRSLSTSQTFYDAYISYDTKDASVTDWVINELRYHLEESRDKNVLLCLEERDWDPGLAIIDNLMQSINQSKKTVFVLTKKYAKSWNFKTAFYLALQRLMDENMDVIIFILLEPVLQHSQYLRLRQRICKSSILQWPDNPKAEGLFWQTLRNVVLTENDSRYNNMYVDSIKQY
Procedure, shortened: as §1

Compound | IC50 [1] [µM] | IC50 [2] [µM] | IC50 [3] [µM]
Cc1cc(-c2[nH]c3ccc(OCCN(C)C)cc3c2C(C)C)ccn1 [Example 167, 2-((3-isopropyl-2-(2-methylpyridin-4-yl)-1H-indol-5-yl)oxy)-N,N-dimethylethan-1-amine] | 1.92 | 0.069 | 0.0031
Cc1c(-c2[nH]c3ccc(OCC4CCN(C(=O)CN(C)C)CC4)cc3c2C(C)C)cn2cnnc2c1C [Example 106, 1-(4-(((2-(7,8-dimethyl-[1,2,4]triazolo[4,3-a]pyridin-6-yl)-3-isopropyl-1H-indol-5-yl)oxy)methyl)piperidin-1-yl)-2-(dimethylamino)ethan-1-one] | 2.11 | 0.0046 | 0.0578
Cc1cc(-c2[nH]c3ccc(OCC4CCN(C(C)C)CC4)cc3c2C(C)C)cc(C)n1 [Example 35, 2-(2,6-dimethylpyridin-4-yl)-3-isopropyl-5-((1-isopropylpiperidin-4-yl)methoxy)-1H-indole] | 0.317 | 0.0049 | 0.0027
Cc1c(-c2[nH]c3ccc(OC4CCN(CC(=O)N(C)C)CC4)cc3c2C(C)C)cn(C)c(=O)c1C [Example 87, 2-(4-((3-isopropyl-2-(1,4,5-trimethyl-6-oxo-1,6-dihydropyridin-3-yl)-1H-indol-5-yl)oxy)piperidin-1-yl)-N,N-dimethylacetamide] | 19.6 | 0.0332 | 0.0058
Cc1cc(-c2[nH]c3ccc(OCC4CCN(CC(=O)N(C)C)CC4)cc3c2C(C)C)cn(C)c1=O [Example 81, 2-(4-(((2-(1,5-dimethyl-6-oxo-1,6-dihydropyridin-3-yl)-3-isopropyl-1H-indol-5-yl)oxy)methyl)piperidin-1-yl)-N,N-dimethylacetamide] | 24.9 | 0.0261 | 0.0097
COc1ccc(-c2[nH]c3ccc(OCCC4CCNCC4)cc3c2C(C)C)cc1OC [Example 158, 2-(3,4-dimethoxyphenyl)-3-isopropyl-5-(2-(piperidin-4-yl)ethoxy)-1H-indole] | 2.99 | 0.049 | 0.0276
CNC(=O)CN1CCC(Oc2ccc3[nH]c(-c4cc(C)c5ncnn5c4)c(C(C)C)c3c2)CC1 [Example 114, 2-(4-((3-isopropyl-2-(8-methyl-[1,2,4]triazolo[1,5-a]pyridin-6-yl)-1H-indol-5-yl)oxy)piperidin-1-yl)-N-methylacetamide] | 31.6 | 0.001 | 0.0051
COc1ccc(-c2[nH]c3ccc(OCC(=O)NCCC(C)(C)O)cc3c2C(C)C)cc1OC [Example 153, 2-((2-(3,4-dimethoxyphenyl)-3-isopropyl-1H-indol-5-yl)oxy)-N-(3-hydroxy-3-methylbutyl)acetamide] | > 50 | 0.461 | 2.53
COc1ccc(-c2[nH]c3ccc(OCC(=O)NC4CCN(C(C)C)CC4)cc3c2C(C)C)cc1OC [Example 139, 2-((2-(3,4-dimethoxyphenyl)-3-isopropyl-1H-indol-5-yl)oxy)-N-(1-isopropylpiperidin-4-yl)acetamide] | 2.44 | 0.623 | 0.0832
Cc1c(-c2[nH]c3ccc(OCC4CCN(C(C)C)CC4)cc3c2C(C)C)cn2cnnc2c1C [Example 55, 6-(3-isopropyl-5-((1-isopropylpiperidin-4-yl)methoxy)-1H-indol-2-yl)-7,8-dimethyl-[1,2,4]triazolo[4,3-a]pyridine] | 1.62 | 0.0026 | 0.0043

The next lines start with the values.

IC50 [1] [µM] | IC50 [2] [µM] | IC50 [3] [µM] | Compound
0.309 | 0.38 | 0.009 | CCc1c(-c2ccc(OC)c(OC)c2)[nH]c2ccc(OC3CCN(C4CCN(CC(C)C)CC4)CC3)cc12 [Example 118, 2-(3,4-dimethoxyphenyl)-3-ethyl-5-((1′-isobutyl-[1,4′-bipiperidin]-4-yl)oxy)-1H-indole]
6.31 | 0.0109 | 0.0011 | Cc1cc(-c2[nH]c3ccc(OC4CCN(CCCC(F)(F)F)CC4)cc3c2C(C)C)cn(C)c1=O [Example 78, 5-(3-isopropyl-5-((1-(4,4,4-trifluorobutyl)piperidin-4-yl)oxy)-1H-indol-2-yl)-1,3-dimethylpyridin-2(1H)-one]
9.94 | 0.439 | 0.0175 | Cc1cc(-c2[nH]c3ccc(OCCN4CCOCC4)cc3c2C(C)C)ccn1 [Example 175, 4-(2-((3-isopropyl-2-(2-methylpyridin-4-yl)-1H-indol-5-yl)oxy)ethyl)morpholine]
0.939 | 0.166 | 0.0153 | COc1ccc(-c2[nH]c3ccc(OC4CCNCC4)cc3c2C(C)C)cc1OC [Example 171, 2-(3,4-dimethoxyphenyl)-3-isopropyl-5-(piperidin-4-yloxy)-1H-indole]
1.57 | 0.12 | 0.0361 | COc1ccc(-c2[nH]c3ccc(OCC(=O)NCCN)cc3c2C(C)C)cc1OC [Example 117, N-(2-aminoethyl)-2-((2-(3,4-dimethoxyphenyl)-3-isopropyl-1H-indol-5-yl)oxy)acetamide]
